Our source for the TGI values is PubChem BioAssay (NCI).

Test systems include A498 renal; K-562 leukemia; SF-539 CNS; NCI-H460 lung; BT-549 breast; LOX IMVI melanoma; CCRF-CEM leukemia; IGROV1 ovarian; RXF 393 renal; MCF7 breast.
Common to all, as to test: NCI-60 cell line screen, 48 h

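Exposure lasted 48 hours, with cells grown in 96-well plates and compounds tested at five concentrations. Definition used: TGI = concentration required for complete inhibition of growth.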

Consider `CC(C)(C)c1cc(C(=O)C2Cc3ccccc3C(=O)O2)cc(C(C)(C)C)c1O` (stereo not given), for which the TGI in the assay on A498 renal was 26.7 µM; in the assay on K-562 leukemia, more than 100 µM; with SF-539 CNS, 31.7 µM; in the assay with NCI-H460 lung it was 23.1 µM; in the assay on BT-549 breast, 42.6 µM; in the assay with LOX IMVI melanoma it was 26.5 µM. For the same compound, the TGI was found to be 34.7 µM in the assay with CCRF-CEM leukemia, 32.6 µM with IGROV1 ovarian, 27.7 µM in the assay on RXF 393 renal and 38.6 µM in the assay on MCF7 breast.
As to `COC1=CC(=O)c2c(cc(COP(N)(=O)N(CCCl)CCCl)n2C)C1=O` (stereo not given), the TGI in the assay with A498 renal turned out to be 5.39 µM; in the assay with K-562 leukemia, 36.9 µM; with SF-539 CNS, 2.19 µM; in the assay with NCI-H460 lung it was 4.31 µM; with BT-549 breast, 2.14 µM; with LOX IMVI melanoma, 1.73 µM. Also, the TGI amounted to 8 µM in the assay with CCRF-CEM leukemia, 2.66 µM in the assay with IGROV1 ovarian, 2.95 µM with RXF 393 renal and 9.55 µM in the assay with MCF7 breast.
Consider `Cc1ccc(S(=O)(=O)/N=C2/N(C)CCCS2(=O)=O)cc1`, for which the TGI with A498 renal, in the assay with K-562 leukemia, with SF-539 CNS, in the assay with NCI-H460 lung, with BT-549 breast and with LOX IMVI melanoma was more than 100 µM in each case. The TGI in the assay with CCRF-CEM leukemia, with IGROV1 ovarian, with RXF 393 renal and in the assay on MCF7 breast was more than 100 µM in each case.
As for `O=C(NNS(=O)(=O)c1ccc(Br)cc1)c1ccc(Cl)cc1NC(=O)C12CC3CC(CC(C3)C1)C2`, the TGI stood at 29 µM with A498 renal; 24.4 µM with K-562 leukemia; 32.3 µM with SF-539 CNS; 23.4 µM with NCI-H460 lung; 34.8 µM in the assay on BT-549 breast; 28.4 µM in the assay with LOX IMVI melanoma. Besides, the TGI came to 76.5 µM in the assay with CCRF-CEM leukemia, 24.7 µM in the assay on IGROV1 ovarian, 31.6 µM with RXF 393 renal and 34.1 µM with MCF7 breast.
As to `COc1cc(NS(C)(=O)=O)ccc1NCc1cnc2ccc3[nH]cccc3c12`, the TGI is 59.2 µM in the assay on A498 renal; 41 µM in the assay on K-562 leukemia; 42.2 µM with SF-539 CNS; 42.1 µM in the assay on NCI-H460 lung; 52.6 µM with BT-549 breast; 63.4 µM with LOX IMVI melanoma. Moreover, the TGI is 59.5 µM in the assay on CCRF-CEM leukemia, more than 100 µM in the assay on IGROV1 ovarian, 21.3 µM in the assay on RXF 393 renal and 59 µM in the assay on MCF7 breast.
Consider `Nc1ncnc2c1ncn2C1OC(CO)C(O)C1NS(=O)(=O)c1ccccc1` (stereo not given), for which the TGI with A498 renal, in the assay with K-562 leukemia, with SF-539 CNS, in the assay on NCI-H460 lung, with BT-549 breast and with LOX IMVI melanoma was more than 100 µM each time. Also, the TGI in the assay with CCRF-CEM leukemia, with IGROV1 ovarian, in the assay with RXF 393 renal and in the assay with MCF7 breast was more than 100 µM each time.
For the compound `c1ccc(C(c2cccc3c2ccc2ccccc23)C(c2ccccc2)c2cccc3c2ccc2ccccc23)cc1` (stereo not given), the TGI with A498 renal, in the assay on K-562 leukemia, in the assay with SF-539 CNS, with NCI-H460 lung, in the assay with BT-549 breast and with LOX IMVI melanoma was more than 100 µM throughout. Also, the TGI in the assay with CCRF-CEM leukemia, in the assay on IGROV1 ovarian, with RXF 393 renal and in the assay with MCF7 breast was more than 100 µM throughout.
With `Nc1nc(Nc2ccc(Cl)cc2)sc1C(=O)c1c[nH]c2ccccc12`, the TGI in the assay on A498 renal is 23.3 µM; with K-562 leukemia, more than 100 µM; with SF-539 CNS it was 31.6 µM; with NCI-H460 lung it was 21.3 µM; with BT-549 breast, 34 µM; in the assay with LOX IMVI melanoma, 43.8 µM. The TGI with CCRF-CEM leukemia was more than 100 µM; with IGROV1 ovarian, 37.1 µM; in the assay on RXF 393 renal, 44.1 µM; in the assay on MCF7 breast, 31 µM.
Regarding `COc1cc(OCc2nc3cc(C(F)(F)F)ccc3nc2-c2ccccc2)cc(OC)c1OC`, the TGI in the assay on A498 renal, in the assay with K-562 leukemia, in the assay on SF-539 CNS, in the assay on NCI-H460 lung, with BT-549 breast and with LOX IMVI melanoma was more than 100 µM in each case. The TGI with CCRF-CEM leukemia is more than 100 µM; in the assay on IGROV1 ovarian, more than 100 µM; with RXF 393 renal it was 65.8 µM; in the assay on MCF7 breast, more than 100 µM.
On to `N#C/C=c1/c2ccccc2n2nc3ccccc3c12`, for which the TGI with A498 renal is 70.3 µM; in the assay on K-562 leukemia, more than 100 µM; with SF-539 CNS it was 37.6 µM; in the assay on NCI-H460 lung it was more than 100 µM; in the assay on BT-549 breast, more than 100 µM; with LOX IMVI melanoma it was more than 100 µM. In addition, the TGI is more than 100 µM in the assay with CCRF-CEM leukemia, 58.3 µM in the assay with IGROV1 ovarian, 58.6 µM in the assay on RXF 393 renal and more than 100 µM in the assay with MCF7 breast.
Turning to `CC(=O)NNC(=S)/N=C\c1c(O)c2ccccc2oc1=O`, the TGI in the assay with A498 renal, in the assay with K-562 leukemia, in the assay with SF-539 CNS, in the assay on NCI-H460 lung, in the assay on BT-549 breast and in the assay with LOX IMVI melanoma was more than 100 µM in each case. Moreover, the TGI in the assay with CCRF-CEM leukemia, in the assay with IGROV1 ovarian, in the assay with RXF 393 renal and in the assay on MCF7 breast was more than 100 µM each time.
Turning to `O=C(/C=C/c1ccc(OCc2ccccc2)cc1)NCc1ccc(C(=O)NCc2ccccc2)cc1`, the TGI with A498 renal, in the assay with K-562 leukemia, with SF-539 CNS, with NCI-H460 lung, in the assay on BT-549 breast and in the assay with LOX IMVI melanoma was more than 100 µM in each case. For the same compound, the TGI in the assay with CCRF-CEM leukemia, in the assay with IGROV1 ovarian, in the assay on RXF 393 renal and in the assay with MCF7 breast was more than 100 µM throughout.
As to `Nc1nc2c(c(-c3ccccc3Cl)n1)COC/C2=C\c1ccccc1Cl`, the TGI was found to be 30.6 µM in the assay on A498 renal; 32 µM with K-562 leukemia; 34.4 µM in the assay on SF-539 CNS; 39 µM in the assay with NCI-H460 lung; 33.4 µM in the assay with BT-549 breast; 36.9 µM in the assay on LOX IMVI melanoma. In addition, the TGI in the assay on CCRF-CEM leukemia came to 32.8 µM; with IGROV1 ovarian, 34 µM; in the assay on RXF 393 renal, 29.9 µM; in the assay with MCF7 breast, 27.7 µM.
For the compound `C/C(=N/NC(=S)Nc1cccc(Cl)c1)c1ccccn1`, the TGI stood at 7.56 µM with A498 renal; 2.85 µM in the assay with K-562 leukemia; 3.35 µM in the assay with SF-539 CNS; 5.46 µM in the assay on NCI-H460 lung; 16 µM in the assay on BT-549 breast; 9.49 µM in the assay with LOX IMVI melanoma. The TGI in the assay on CCRF-CEM leukemia is more than 15.9 µM; in the assay on IGROV1 ovarian it was 9.29 µM; in the assay on RXF 393 renal it was 9.76 µM; in the assay with MCF7 breast, 5.17 µM.
